In brackets after ≈: the same amount, converted by molar mass. Several values for one entry are separate records, joined by “and”; a condition that tells them apart may be missing. Equal values may be shown once. Read-outs that look alike come from different tables or passages of the source.
How the values were obtained:
[1] = tested on: E. faecium ATCC 700221 (VRE); experiment: Broth dilution MIC, E. faecium ATCC 700221; assay type: cell-based
S. aureus BAA-39 (MDR) = experiment: Broth dilution MIC, S. aureus BAA-39; assay type: cell-based; conditions: for MIC: Staphylococcus aureus, BAA39
[2] = tested on: S. pneumoniae ATCC 700674 (PRSP); experiment: Broth dilution MIC, S. pneumoniae ATCC 700674; assay type: cell-based; conditions: Streptococcus pneumoniae
M. tuberculosis = experiment: Testing against M. tuberculosis; assay type: cell-based; conditions: recent testing
K. pneumoniae ATCC 51503 = experiment: Broth dilution MIC, K. pneumoniae ATCC 51503; assay type: cell-based; conditions: Klebsiella pneumoniae
MRSA = experiment: Disk diffusion assay, zone of inhibition, MRSA; assay type: cell-based, Staphylococcus aureus
[3] = tested on: Mycobacterium tuberculosis; experiment: Time kill curve, liquid culture, M. tuberculosis; assay type: cell-based; conditions: 1.9 micromolar; vs DMSO control; FIG. 1 left-hand graph
Method: Either Mycobacterium tuberculosis or Mycobacterium smegmatis liquid cultures were incubated with SKI-1 (356313) at a concentration of 1.9 micromolar and viable bacterial titer was determined over the time period indicated by culturing serial dilutions on agar media. Control cultures were treated with an equivalent volume of DMSO.

E. coli ECM 1694 = experiment: Broth dilution MIC, E. coli ECM 1694; assay type: cell-based; conditions: Escherichia coli
[4] = tested on: S. aureus ATCC 33591 (MRSA); experiment: Broth dilution MIC, S. aureus ATCC 33591; assay type: cell-based; conditions: for MIC: Staphylococcus aureus
[5] = tested on: S. pneumoniae (ATCC 6303); experiment: Thigh infection model in neutropenic CD1 mice, S. pneumoniae; conditions: 24 hours; for Log reduction: vs vehicle

c1cc(C2=NCCN2)ccc1Nc1ccc(-c2cc3ccc(C4=NCCN4)cc3[nH]2)cc1 [SKI-1]
MIC ([1]; Enterococcus faecium, Table 1, range 64 down to 0.12 μg/ml, read-out: MIC E. faecium ATCC 700221): ≤ 0.12 µg/mL
MIC ([1]; Enterococcus faecium, Table 3, starting at 4 μg/ml, read-out: MIC E. faecium ATCC 700221): 0.06 µg/mL (≈ 0.143 µM)
MIC ([1]; Enterococcus faecium, Table 4, broth dilution MIC according to CLSI standards (NAEJA), read-out: MIC VRE E. faecium ATCC 700221): 0.03 µg/mL (≈ 0.0713 µM)
MIC ([1]; Table 2, broth dilution MIC in ug/ml, read-out: MIC E faecium ATCC 700221 VRE): 0.06 µg/mL (≈ 0.143 µM)
MIC (S. aureus BAA-39 (MDR); Table 1, range 64 down to 0.12 μg/ml, read-out: MIC S. aureus BAA-39): 0.25 µg/mL (≈ 0.595 µM)
MIC (S. aureus BAA-39 (MDR); Table 2, broth dilution MIC in ug/ml, read-out: MIC S aureus BAA-39 MDR): 0.25 µg/mL (≈ 0.595 µM)
MIC (S. aureus BAA-39 (MDR); Table 4, broth dilution MIC according to CLSI standards (NAEJA), read-out: MIC MDR S. aureus BAA-39): 0.25 µg/mL (≈ 0.595 µM)
MIC S. aureus BAA-39 (S. aureus BAA-39 (MDR); Table 3, starting at 4 μg/ml): 0.25 µg/mL (≈ 0.595 µM)
MIC ([2]; Table 1, range 64 down to 0.12 μg/ml, read-out: MIC S. pneumoniae ATCC 700674): ≤ 0.12 µg/mL
MIC ([2]; Table 2, broth dilution MIC in ug/ml, read-out: MIC S pneumonia ATCC 700674 PRSP): 0.12 µg/mL (≈ 0.285 µM)
MIC ([2]; Table 3, starting at 4 μg/ml, read-out: MIC S. pneumoniae ATCC 700674): 0.12 µg/mL (≈ 0.285 µM)
MIC ([2]; Table 4, broth dilution MIC according to CLSI standards (NAEJA), read-out: MIC PRSP S. pneumoniae ATCC 700674): 0.03 µg/mL (≈ 0.0713 µM)
Activity against M. tuberculosis (M. tuberculosis): comparable to that observed for M. smegmatis
MIC (K. pneumoniae ATCC 51503; ATCC51503, Table 1, range 64 down to 0.12 μg/ml, read-out: MIC K. pneumoniae ATCC 51503): 2 µg/mL (≈ 4.76 µM)
MIC (K. pneumoniae ATCC 51503; ATCC51503, Table 2, broth dilution MIC in ug/ml, read-out: MIC K pneumonia ATCC 51503): 2 µg/mL (≈ 4.76 µM)
MIC (K. pneumoniae ATCC 51503; ATCC51503, Table 4, broth dilution MIC according to CLSI standards (NAEJA), read-out: MIC K. pneumoniae ATCC 51503): 1 µg/mL (≈ 2.38 µM)
Average Zone Size MRSA (MRSA): 11
Zone Size MRSA (MRSA; disk diffusion zone of inhibition): 11 mm
Viable bacterial titer over time (time kill curve) [3]: bactericidal
MIC (E. coli ECM 1694; ECM1694, Table 1, range 64 down to 0.12 μg/ml, read-out: MIC E. coli ECM 1694): 0.25 µg/mL (≈ 0.595 µM)
MIC (E. coli ECM 1694; ECM1694, Table 2, broth dilution MIC in ug/ml, read-out: MIC E. coli ECM 1693): 0.25 µg/mL (≈ 0.595 µM)
MIC (E. coli ECM 1694; ECM1694, Table 3, starting at 4 μg/ml, read-out: MIC E. coli ECM 1694): 0.5 µg/mL (≈ 1.19 µM)
MIC (E. coli ECM 1694; ECM1694, Table 4, broth dilution MIC according to CLSI standards (NAEJA), read-out: MIC E. coli ECM 1694): 0.25 µg/mL (≈ 0.595 µM)
MIC ([4]; Table 1, range 64 down to 0.12 μg/ml, read-out: MIC S. aureus ATCC 33591): 0.25 µg/mL (≈ 0.595 µM)
MIC ([4]; Table 2, broth dilution MIC in ug/ml, read-out: MIC S aureus ATCC 33591 MRSA): 0.25 µg/mL (≈ 0.595 µM)
MIC ([4]; Table 4, broth dilution MIC according to CLSI standards (NAEJA), read-out: MIC MRSA S. aureus ATCC 33591): 0.12 µg/mL (≈ 0.285 µM)
MIC S. aureus ATCC 33591 ([4]; Table 3, starting at 4 μg/ml): 0.25 µg/mL (≈ 0.595 µM)
Mean bacterial tissue burden (log10/thigh) ([5]; 10 mg/kg BID IP): 6.7143 log10/thigh
Log reduction ([5]; 10 mg/kg BID IP, listed as 356313, 10 mg/kg): 2.40 Log and 2.3984 Log
Mean bacterial tissue burden (log10/thigh) ([5]; 20 mg/kg BID IP): 5.6260 log10/thigh
Log reduction ([5]; 20 mg/kg BID IP, listed as 356313, 20 mg/kg): 3.49 Log and 3.4867 Log
